# Laboratory results from PMC8362126, “Proteolysis Targeting Chimera (PROTAC) for Macrophage Migration Inhibitory Factor (MIF) Has Anti‐Proliferative Activity in Lung Cancer Cells” (Angewandte Chemie (International Ed. in English), 2021).
# “And” between values parts separate entries of the source, which are not always exact repeats. Equal values may be shown once. “Also recorded” adds a separate entry of the source.
# What was measured:
# MIF [1] = target: T1, MIF (Homo sapiens, UniProt P14174); assay: MIF degradation in A549 cells, western-blot; type: cell-based; set-up: endogenous in cells; host or cells: A549 (ATCC CCL-185); settings: A549 cells; for rescue of MD9 mediated MIF degradation: 2 hours pretreatment (1 100 µM, 3 50 µM, 4 50 µM, Bortezomib), then 10 µM MD9 12 h; for rescue of MD13 mediated MIF degradation: co-treatment (Bortezomib) or 1 hour pretreatment (3, 4) with MD13
# T1 sequence (P14174 2-115 limits assumed): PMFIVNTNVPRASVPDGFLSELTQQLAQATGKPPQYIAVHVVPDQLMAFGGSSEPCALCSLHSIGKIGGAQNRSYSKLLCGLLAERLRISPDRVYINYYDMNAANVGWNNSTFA
# Procedure: The concentration dependence of PROTAC MD13‐mediated induction of MIF degradation in A549 cells was investigated using western‐blot. […] The MIF levels were normalized to the vehicle treated control and plotted to the respective MD13 concentrations. This provided a DC50 of around 100 nM and a maximal degradation of around 90–95 % at concentrations higher than 1 μM (Figure 3 B). The DC50 of MD13 measured by ELISA assay was about 200 nM (Figure 3 C), which is in line with the result from western‐blot. […]
# Cell lysates were prepared using the protocol described above. About 10−40 μg of total protein was mixed with the 4× Laemmli Loading Dye (250 mM Tris, pH 6.8, 40% glycerol, 5% SDS, 0.005% bromophenol blue, 4% β-mercaptoethanol) and heated at 95−100 °C for 5 min and loaded onto a 12% Bis-Tris gel (Bio-Rad Laboratories, #4561084) and proteins were separated at 120V. Afterwards, proteins were transferred to polyvinylidene fluoride (PVDF) membranes, subsequently non-specific antibody binding was blocked with 5% nonfat dry milk (BIO-RAD, #1706404) in TBST buffer and incubated overnight at 4 °C with one of the following primary antibodies: anti-MIF (1:1000, ThermoFisher, #PA5-27343 ) or anti-β-actin (1:10000 Cell Signalling, #8457). The membranes were further incubated with a goat anti-rabbit HRP-conjugated secondary antibody (1:2000, DAKO, p0448) for 2 h at room temperature. Proteins were visualized with an ECLTM Prime Western Blotting System (GE Healthcare #RPN2232). The immunoblot was generated by ChemiDoc MP Imaging Systems (Bio-Rad) and analyzed by the ImageJ software. […]
# As a control, the same experiment was repeated and analyzed by a western-blot assay (Figure 3B). The potency estimated from the Western blot assay was 1 µM (Figure 3C), which is consistent with the result from the ELISA assay. The “Hook effect” […]
# MIF [2] = target: T1, MIF; assay: MIF degradation in A549 cells, cell lysate-based ELISA; set-up: endogenous in cells; host or cells: A549 (ATCC CCL-185); settings: for Dmax at 20 µM / degradation [%] 2 μM / degradation (%) 20 µM: vs DMSO, mean±SD n=3
# Procedure: In addition, A549 cells have been successfully used for assessing activity of cereblon ligand‐based PROTACs previously.[42] Therefore, A549 is a suitable cell line for evaluating the effect of our putative MIF‐directed PROTACs MD1 to MD12 on MIF protein levels. The reduction in MIF levels were monitored in A549 cells that were treated with two different PROTAC concentrations (20 and 2 μM) for 12 h in order to estimate the dose dependency, which is important for PROTACs because of the Hook effect.[35] The MIF levels in cell lysates were analyzed using an enzyme‐linked immunosorbent assay (ELISA).
# S3. ELISA screening of MIF protein level on MIF-directed PROTACs
# Cell culture. Human A549 lung cancer cells (ATCCCCL-185) or HEK293 kidney […]
# containing 10% (v/v) fetal bovine serum (FBS), 100 U/mL penicillin/streptomycin […]
# ELISA. 7×10^5 A549 cells per well were plated in 6-well plates. The next day, cells were treated with a solution of compounds or the vehicle for 12 h. Subsequently, the culture medium was removed and cells were washed twice with cold PBS and collected after trypsin (0.5 mL) degestion. Cells were then lyzed in lysis buffer (150 mM NaCl, 50 mM Hepes pH 7.5, 5 mM EDTA, 0.1% (w/v) NP40) containing protease inhibitor cocktail (Roche, #11836153001) and resuspended vigourously. The supernatant was collected after spinning down at 16 000g at 4 °C for 30 min. The total protein concentration was determined with PierceTM BCA protein assay kit ( ThermoFisher , #23225). The protein concentration was normalized between samples. The relative MIF levels from 1µg total protein were determined by ELISA with the human MIF DuoSet ELISA kit according to the instructions of the manufacturer (R&D systems, #DY289).
# Figure S1. Screening of compounds for MIF degradation activity by cell lysate -based ELISA.
# A549 cells were treated with compounds at (A) 20 or (B) 2 µM for 12 h. Data was normalized […]
# (1 picture or pasted object on this page, not shown here)
# MIF [3] = target: T1, MIF; assay: MIF catalyzed 4-HPP tautomerization assay; type: biochemical; settings: for IC50: 4-HPP conversion assay; for Ki: MIF catalyzed 4-HPP tautomerization, n=3
# Procedure: S2. MIF Tautomerase activity IC50 study
# The protocol for measuring inhibition of MIF tautomerase enzyme activity and enzyme kinetics was described previously.[8] Briefly, 180 µL of a 500 nM MIF solution in boric acid buffer (435 mM, pH 6.2) was mixed with 10 µL of a 20 mM EDTA solution in demiwater and 10 µL of a solution of the desired compound dissolved in DMSO or blanc DMSO. This mixture was pre-incubated at room temperature for 10 min. Next, 50 µL of this mixture was mixed with 50 µL of a 1 mM 4-HPP solution in ammonium acetate buffer (50 mM, pH 6.0). Subsequently, MIF tautomerase activity was monitored by measuring the increase of UV absorbance at 306 nm over time. MIF tautomerase activity in the presence a blank DMSO dilution was set to 100% enzyme activity. Non-catalyzed conversion of the substrate in absence of MIF was set to 0%.
# Data from the first three minutes were used to calculate the initial velocities. All experiments were repeated three times and calculations were performed with the program GraphPad Prism.
# Table S1. 4-HPP conversion assay results of MIF PROTACs
# (also on this page, place not known: p rotocol previously. subs trate log [MD-1] (10^-6 M) Activity of MIF tautomerase(%) -2 -1 0 1 2 0 50 100 log [MD-2] (10^-6 M) Activity of MIF tautomerase(%) -2 -1 0 1 2 0 50 100)
# MIF [4] = target: T1, MIF; assay: MIF degradation in A549 cells, cell lysate-based ELISA; set-up: endogenous in cells; host or cells: A549 (ATCC CCL-185); settings: 12 h, vs DMSO, mean±SD n=3
SMILES,"Dmax at 20 µM (MIF [2]; A549, 12 h, A549 cells, 12 h) [%]","degradation [%] 2 μM (MIF [2]; A549 cells, 12 h)",IC50 (MIF [3]) [nM],Ki (MIF [3]) [nM],further results
CC(C)C[C@H](NC(=O)[C@H](Cc1ccccc1)NC(=O)c1cnccn1)B(O)O [Bortezomib],–,–,–,–,rescue of MD9 mediated MIF degradation (MIF [1]): considerably decreased; also recorded: rescued; rescue of MD13 mediated MIF degradation (MIF [1]): inhibited the degradation of MIF; rescue of MD13 mediated MIF degradation (MIF [1]; listed as bortezomib): able to abolish the MD13 triggered degradation
O=C1CCC(N2C(=O)c3cccc(NCCCCC(=O)Nc4ccc(N5Cc6ccc(O)cc6OC5=O)cc4)c3C2=O)C(=O)N1 (centres unmarked) [MD7],–,n.s.,82 ± 4,55 ± 3,"Dmax at 20 µM (MIF [2]; A549 cells, 12 h): 61 ± 7%"
O=C(CCCCNc1cccc2c1C(=O)N(C1CCC(=O)NC1=O)C2=O)NCc1ccc(N2Cc3ccc(O)cc3OC2=O)cc1 (centres unmarked) [MD8],–,21±7%,129 ± 8,86 ± 5,"Dmax at 20 µM (MIF [2]; A549 cells, 12 h): 51 ± 4%"
O=C1CCC(N2C(=O)c3cccc(NCCCCCCC(=O)Nc4ccc(N5Cc6ccc(O)cc6OC5=O)cc4)c3C2=O)C(=O)N1 (centres unmarked) [MD9],92 ± 10,55±4%,76 ± 4,51 ± 3,"degradation [%] 0.2 μM (MIF [4]): 24±4%; Dmax (MIF [2]; A549, A549 cells, 12 h, ELISA, read-out: maximal degradation): > 90%; DC50 (MIF [2]; A549 cells, 12 h, ELISA, read-out: half-maximal degradation concentration (DC50)): 1500 nM and ~1500 nM; Hook effect (MIF [2]; A549 cells, at 20 μM, ELISA and western-blot): Hook effect; DC50 (MIF [1]; 12 h, western-blot, read-out: DC50 (potency estimated from western blot)): 1000 nM and ~1500 nM; time of treatment after which MIF degradation becomes visible (MIF [1]; MD9 at 10 μM): 3 h"
O=C(Cc1ccc(N2Cc3ccc(O)cc3OC2=O)cc1)NCc1cn(-c2ccc(CC(=O)Nc3cccc4c3C(=O)N(C3CCC(=O)NC3=O)C4=O)cc2)nn1 (centres unmarked) [MD12],38 ± 6,n.s.,138 ± 6,92 ± 4,–
O=C1CCC(N2C(=O)c3cccc(NCCCCCCCCCC(=O)Nc4ccc(N5Cc6ccc(O)cc6OC5=O)cc4)c3C2=O)C(=O)N1 (centres unmarked) [MD14],–,64±2%,97 ± 6,65 ± 4,degradation [%] 0.2 μM (MIF [4]): 51±2%
"COC(=O)CC1CC(c2ccc(O)cc2)=NO1 (centres unmarked) [compound 1, ISO 1]",–,–,–,–,rescue of MD9 mediated MIF degradation (MIF [1]): partial to complete rescue; also recorded: rescued
"COc1ccc(-c2cc3ccc(O)cc3oc2=O)cc1 [compound 2, reference compound]",–,–,–,370 ± 30,–

# Continued, in another order:
"Dmax at 20 µM (MIF [2]; A549, 12 h, A549 cells, 12 h) [%]","degradation [%] 2 μM (MIF [2]; A549 cells, 12 h)",IC50 (MIF [3]) [nM],Ki (MIF [3]) [nM],SMILES,further results
16 ± 7,n.s.,262 ± 35,175 ± 23,O=C1CCC(N2C(=O)c3cccc(NCc4cn(CC(=O)Nc5ccc(-c6cc7ccc(O)cc7oc6=O)cc5)nn4)c3C2=O)C(=O)N1 (centres unmarked) [MD1],–
31 ± 3,n.s.,288 ± 25,192 ± 17,O=C1CCC(N2C(=O)c3cccc(NC(=O)CCc4cn(CC(=O)Nc5ccc(-c6cc7ccc(O)cc7oc6=O)cc5)nn4)c3C2=O)C(=O)N1 (centres unmarked) [MD2],–
22 ± 9,n.s.,182 ± 16,121 ± 11,O=C1CCC(N2C(=O)c3cccc(NC(=O)CCCc4cn(CC(=O)Nc5ccc(-c6cc7ccc(O)cc7oc6=O)cc5)nn4)c3C2=O)C(=O)N1 (centres unmarked) [MD3],–
50 ± 3,n.s.,233 ± 26,155 ± 17,O=C1CCC(N2C(=O)c3cccc(NC(=O)CCCCc4cn(CC(=O)Nc5ccc(-c6cc7ccc(O)cc7oc6=O)cc5)nn4)c3C2=O)C(=O)N1 (centres unmarked) [MD4],–
58 ± 8,n.s.,895 ± 82,597 ± 55,O=C1CCC(N2C(=O)c3cccc(NC(=O)CCCCc4cn(CCC(=O)Nc5ccc(-c6cc7ccc(O)cc7oc6=O)cc5)nn4)c3C2=O)C(=O)N1 (centres unmarked) [MD5],–
–,n.s.,1500 ± 130,999 ± 87,O=C1CCC(N2C(=O)c3cccc(NC(=O)Cc4ccc(-n5cc(CCCC(=O)Nc6ccc(-c7cc8ccc(O)cc8oc7=O)cc6)nn5)cc4)c3C2=O)C(=O)N1 (centres unmarked) [MD6],"degradation (%) 20 µM (MIF [2]; A549 cells, 12 h): n.s. and did not trigger MIF reduction"
–,55±9%,147 ± 13,98 ± 9,O=C1CCC(N2C(=O)c3cccc(NCc4cn(CCC(=O)Nc5ccc(N6Cc7ccc(O)cc7OC6=O)cc5)nn4)c3C2=O)C(=O)N1 (centres unmarked) [MD10],–
–,n.s.,143 ± 11,95 ± 7,O=C1CCC(N2C(=O)c3cccc(NC(=O)CCCc4cn(CCC(=O)Nc5ccc(N6Cc7ccc(O)cc7OC6=O)cc5)nn4)c3C2=O)C(=O)N1 (centres unmarked) [MD11],"degradation (%) 20 µM (MIF [2]; A549 cells, 12 h): 40±8%"
